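Five concentrations, 48 hours, 96-well plates. The concentration for 50% growth inhibition is given as GI50.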 Calls of active or inactive are those of the source. No stated cut-off is given here; in the data, active = GI50 up to about 1.1 µM and inactive = higher.
Legend:
Assay in all cases: inhibition of tumour cell growth, NCI panel, 48 h
[1] = system: RXF 393
[2] = system: KM12
[3] = system: NCI-H522
[4] = system: TK-10
[5] = system: U-251
[6] = system: SW-620
[7] = system: HOP-62
[8] = system: SF-295
[9] = system: A549
[10] = system: OVCAR-5
[11] = system: CCRF-CEM
[12] = system: SK-MEL-5
[13] = system: SK-MEL-28
[14] = system: NCI-H23
[15] = system: M14
[16] = system: LOX IMVI

Measured: GI50

COc1cc(CCCC(O)COc2cccc3c2C2(O)CCCCCC32)cc(OC)c1 (centres undefined)
inactive: [1] 24.8 µM | [2] 17.2 µM | [3] 24.9 µM | [4] 14.1 µM | [5] 18.9 µM | [6] 17.2 µM | [7] 15 µM | [8] 16.5 µM | [9] 16.1 µM | [10] 15.4 µM | [11] 25.8 µM | [12] 7.85 µM | [13] 17 µM | [14] 16.9 µM | [15] 17.5 µM

COc1cccc(NC(=O)CC(=O)N2NC(C)C(/N=N/c3cccc(C(=O)O)c3)C2=O)c1 (centres undefined)
inactive: [2] > 100 µM | [3] > 100 µM | [4] > 100 µM | [5] > 100 µM | [6] > 100 µM | [16] > 100 µM | [7] > 100 µM | [8] > 100 µM | [9] > 100 µM | [10] > 100 µM | [11] > 100 µM | [12] > 100 µM | [13] > 100 µM | [14] > 100 µM | [15] > 100 µM

CN(CN1C(=O)C2Cc3ccccc3CN2C1=O)c1ccccn1 (centres undefined)
inactive: [2] > 100 µM | [3] > 100 µM | [4] > 100 µM | [5] > 100 µM | [6] > 100 µM | [16] > 100 µM | [7] > 100 µM | [8] > 100 µM | [9] > 100 µM | [10] > 100 µM | [11] > 100 µM | [12] > 100 µM | [13] > 100 µM | [14] > 100 µM | [15] > 100 µM

N=C(c1ccccc1)N(c1ccccc1)c1ccccc1
inactive: [1] 30.5 µM | [2] 25.2 µM | [3] 73.3 µM | [4] > 100 µM | [5] > 100 µM | [6] > 100 µM | [16] 18.2 µM | [7] > 100 µM | [8] > 100 µM | [9] > 100 µM | [10] 76.7 µM | [13] > 100 µM | [14] > 100 µM | [15] > 100 µM

CCOC(=O)/C(C(C)=O)=C1/N[C@H](C(=O)OCC)CS1
inactive: [1] > 100 µM | [2] > 100 µM | [3] > 100 µM | [5] > 100 µM | [6] > 100 µM | [16] > 100 µM | [7] > 100 µM | [8] > 100 µM | [9] > 100 µM | [10] > 100 µM | [11] > 100 µM | [12] > 100 µM | [13] > 100 µM | [14] > 100 µM | [15] > 100 µM

CC(=O)O[C@@]1(C)[C@@H](C)C(=O)O[C@@H]2CCN3CC=C(COC(=O)[C@]1(C)O)[C@H]23
inactive: [2] > 100 µM | [3] > 100 µM | [4] > 100 µM | [5] > 100 µM | [6] > 100 µM | [7] > 100 µM | [8] > 10 µM | [9] > 100 µM | [10] > 100 µM | [11] > 100 µM | [12] > 100 µM | [13] > 100 µM | [14] > 100 µM | [15] > 100 µM

CC1(C)N=C(c2ccccn2)C(c2ccccn2)=NC1(C)C
inactive: [1] > 100 µM | [2] > 100 µM | [5] > 100 µM | [6] > 100 µM | [16] > 100 µM | [8] > 100 µM | [9] > 100 µM | [10] > 100 µM | [11] > 100 µM | [12] > 100 µM | [15] > 100 µM

COc1ccccc1NC(=O)CC(=O)N1N=C(c2ccccc2)C(/N=N/c2ccc(Cl)cc2)C1=O (centres undefined)
inactive: [2] 49.5 µM | [3] 32.1 µM | [4] 27.7 µM | [5] 30.9 µM | [6] 45.6 µM | [16] 22.9 µM | [7] 23.4 µM | [8] 30.5 µM | [9] 25.1 µM | [10] > 100 µM | [12] 14.6 µM | [13] 37 µM | [14] 34.4 µM | [15] 59.8 µM

CN1C(=O)C(C)(C)C2(SC(C)(C)C2(C)C)N(C)C1=S (centres undefined)
inactive: [1] > 100 µM | [2] > 100 µM | [3] 86.7 µM | [5] > 100 µM | [6] > 100 µM | [7] > 100 µM | [8] > 100 µM | [9] > 100 µM | [10] > 100 µM | [11] > 100 µM | [12] > 10 µM | [13] > 100 µM | [14] > 100 µM | [15] > 100 µM

COc1ccc(/C=C(/C(=O)O)c2cc(OC)c(OC)c(OC)c2)cc1
inactive: [2] 63 µM | [3] 16.8 µM | [5] 35.2 µM | [6] 61 µM | [7] 35 µM | [9] 56.1 µM | [10] > 100 µM | [11] 43.1 µM | [12] 41.1 µM | [13] 61.9 µM | [14] 27.2 µM | [15] 24.2 µM

From ChEMBL document CHEMBL1201862, “PubChem BioAssay data set” (2004)
